# Measured values published in EP2666766A1, “Novel E,E-diene compounds and their use as medicaments and cosmetics” (Dr. August Wolff GmbH & Co. KG Arzneimittel, priority 2012, dated 2013).
# Tested on: Arachidonoylethanolamide Transport (AEAT)
# Experiment: Cellular uptake of [3H]-AEA (inhibition of AEA transport)
# Assay type: cell-based
# Conditions: Homo sapiens, U-937, 0.25 h; U937 cells; 100 nM AEA, 15 min, 37°C
# Description: C. Cellular uptake of [^3H]-AEA
# Human lymphoma U937 cells were grown in RPMI 1640 medium (Invitrogen, Basel, Switzerland) supplemented with 10% fetal bovine serum, […] fungizone (amphotericin B), 100 units/ml penicillin, 100 µg/ml streptomycin, and 2 mM L-glutamine (all from Invitrogen) and selected for the cellular AEA uptake assay. 2.5 x 10^6 cells were collected and suspended in 250 µL of RPMI 1640 medium (Invitrogen, Basel, Switzerland) at 37°C using glass silanized vials. Cells were pre-incubated 15 min at 37°C in presence of test compounds in a concentration range of 10^-11 - 10^-5 M or in presence of the same amount (5 µl) of vehicle control (DMSO). Then a mixture of 0.5 nM [^3H]-AEA (60 Ci/mmol) (American Radiolabeled Chemicals, Inc., San Louis, MO, US) and 99.5 nM of nonradioactive AEA (Tocris Cookson Ltd., Bristol, UK) resulting in a final concentration of 100 nM AEA was added and samples were incubated at 37°C for another 15 minutes. The reaction was stopped by rapid filtration over UniFilter®-96 GF/C (Perkin Elmer, Boston MA, US) pre-soaked with PBS 0.25 % BSA (w/v). Cells were washed three times with ice-cold PBS buffer containing 1% fatty acid free BSA (137 mM NaCl, 2.7 mM KCl, 10 mM Na2HPO4, 1.76 mM KH2PO4, 1% BSA fatty acid free, pH 7.4), dried and 40 µL MicroScint 20 scintillation cocktail (Perkin Elmer, Waltham, MA, US) was added. Radioactivity was measured using a Perkin Elmer 1450 Microbeta TRILUX liquid scintillation counter. Results were expressed as % of AEA uptake versus cells treated with solvent and the EC50 and IC50 values were calculated from the sigmoidal curves, which were generated using the GraphPad Prism 5.0 (GraphPad Software, San Diego, CA, US). Table 2: Inhibition of Arachidonoylethanolamide Transport (AEAT) (Determination as Described in Biological Assays C)
row,Structure (SMILES),EC50
1,CCCCOCC/C=C/C=C/CN(C)C(=O)OCc1cc(C(=O)OCC)no1 [Example 14],286 nM
2,CCCCOCC/C=C/C=C/CN(C)C(=O)OCc1cc(C(=O)N(C)C)no1 [Example 17],81 nM
3,CCCCOCC/C=C/C=C/CN(C)C(=O)OCc1cc(C(N)=O)no1 [Example 15],70 nM
4,CCCCCOC/C=C/C=C/CNC(=O)OCc1ccncc1 [Example 1],147 nM

# Compounds with a lower EC50, results first:
row,EC50,Structure (SMILES)
1,7 nM,CCCCOCC/C=C/C=C/CN(C)C(=O)OCc1cc(C(=O)NC)no1 [Example 16]
2,9 nM,CCCCOCC/C=C/C=C/CNC(=O)OCc1cc(C(N)=O)no1 [Example 18]
3,3 nM,CCCCOCC/C=C/C=C/CNC(=O)OCc1cc(C(=O)OCC)no1 [Example 9]
4,6 nM,CCCCOCC/C=C/C=C/CNC(=O)OCc1cc(C(=O)N(C)C)no1 [Example 12]
5,0.573 nM,CCCCOCC/C=C/C=C/CNC(=O)OCc1cc(C(=O)NC)no1 [Example 13]
6,6 nM,CCCCCOC/C=C/C=C/CNC(=O)NCCc1ccc(O)c(O)c1 [Example 3]
